In series [1] the target is somatostatin receptor (SSTR) subtype 2 (Homo sapiens, UniProt P30874). The following applies: cited from earlier work.
The conditions of series [2]: intranasal delivery; cited from earlier work.
Series [3] can be described thus: Maximum water solubility of TEEE. It counts as physicochemical. As to the method:
The compound described is a selective IL-23 receptor antagonist peptide comprising D-amino acids with the formula cyclo-D-[…] (SEQ ID NO: 3), where any amino acid is a D-amino acid, MW: ca. 1039, hereafter designated TEEE, supplied by Allostera Pharma as a dry powder, and is formulated for intravenous at 0.02 and 0.2 mg/mL in sterile saline by dilution of an initial stock prepared at 2 mg/mL. Additionally, 4 different formulations of dry TEEE are prepared in gelatin capsules. For each type of dry formulation 10 capsules are prepared to contain enough test article in a way to deliver ca 2.5, 5.0 or 10 mg/kg. […] Solutions and capsules are stored at ca 4° C. upon until dose administration. The intravenous formulation is kept at room temperature pending dose administration. The final appearance of the intravenous formulations consists of clear solutions.

The nature of series [4]: Clinical signs during the TEEE pharmacokinetic study. Type of series: in vivo, Male Sprague-Dawley rats. The following applies: oral (2.5-10 mg/kg capsules) or intravenous (0.1, 1 mg/kg) administration, rats. From the text: Male Sprague-Dawley rats are ca 8-9 week old at onset of treatment (weight at onset of treatment, 348-398 g). Animals are allocated into groups of 3 rats/group. Immediately following arrival, animals are uniquely identified via an eartag. Animals are purchased from Charles River Canada (St-Constant, Canada). Following an examination by a qualified In-Life Specialist (including body weight determination), animals are acclimated to the testing facilities for ca 72 hr prior to test article administration. Room conditions are: temperature ca 20° C., humidity ca 50%. Animals are housed in solid bottom polycarbonate cages equipped with a filter top to avoid contamination, fed with standard certified rodent food (brand and lot no. to be documented in the raw data). The animals had continuous access to RO/UV water, via bottles. All rats are administered the compounds intravenously (Groups 1 and 2) in a jugular vein under light isoflurane anesthesia or orally by capsule (one per animal) using a specially designed capsule delivery tube (Groups 3-14). The dose volume is 5.0 ml/kg for groups 1 and 2 and one capsule/animal for Groups 3 to 14. Prior to dosing, each animal is weighed and the weight recorded. […] Plasma concentrations of each compound are determined using an LCMS assay (non-GLP) with an analytical range of ca 25-1000 ng/mL. […]

Positions of bridges follow the written chain, without caps; N, C: chain ends. Non-standard residues stand in square brackets, D forms with d. Residues, ends and D or L forms follow the SMILES beside them. d2Nal = N[C@H](Cc1ccc2ccccc2c1)C(=O)O

The source of these data is patent publication US20130034597A1, “ORALLY BIOAVAILABLE PEPTIDE DRUG COMPOSITIONS AND METHODS THEREOF” (AEGIS THERAPEUTICS LLC, priority 2011, published 2013).

somatostatin receptor (SSTR) subtype 2, sequence (P30874 whole entry): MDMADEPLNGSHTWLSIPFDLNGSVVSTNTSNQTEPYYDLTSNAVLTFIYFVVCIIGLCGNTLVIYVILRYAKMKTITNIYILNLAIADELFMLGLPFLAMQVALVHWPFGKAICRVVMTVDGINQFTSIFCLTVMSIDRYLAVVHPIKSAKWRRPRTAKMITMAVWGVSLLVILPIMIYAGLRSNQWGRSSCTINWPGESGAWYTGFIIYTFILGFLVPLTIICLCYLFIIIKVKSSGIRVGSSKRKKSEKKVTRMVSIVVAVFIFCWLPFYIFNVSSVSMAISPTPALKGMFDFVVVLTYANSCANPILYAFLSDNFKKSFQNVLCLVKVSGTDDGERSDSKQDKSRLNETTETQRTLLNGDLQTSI

As for `CC(C)[C@@H]1NC(=O)[C@H](CCCCN)NC(=O)[C@@H](Cc2c[nH]c3ccccc23)NC(=O)[C@H](Cc2ccc(O)cc2)NC(=O)[C@H](NC(=O)[C@H](N)Cc2ccc3ccccc3c2)CSSC[C@H](C(=O)N[C@H](C(N)=O)[C@@H](C)O)NC1=O` [lanreotide, (4S,7S,10S,13R,16S,19S)-10-(4-aminobutyl)-19-[[(2R)-2-amino-3-naphthalen-2-yl-propanoyl]amino]-N-[(1S,2R)-1-carbamoyl-2-hydroxy-propyl]-16-[(4-hydroxyphenyl)methyl]-13-(1H-indol-3-ylmethyl)-6,9,12,15,18-pentaoxo-7-propan-2-yl-1,2-dithia-5,8,11,14,17-pentazacycloicosane-4-carboxamide] (H-[d2Nal][dC]Y[dW]KV[dC]T-NH2; disulfide 2-7), the binding affinity entry in series [1] was “high”.
Turning to calcitonin, the average bioavailability result in series [2] is “about 3%”.
Consider “cyclo-D-TEEEQQYL (cyclo([dT][dE][dE][dE][dQ][dQ][dY][dL]); SMILES CC(C)C[C@H]1NC(=O)[C@@H](Cc2ccc(O)cc2)NC(=O)[C@@H](CCC(N)=O)NC(=O)[C@@H](CCC(N)=O)NC(=O)[C@@H](CCC(=O)O)NC(=O)[C@@H](CCC(=O)O)NC(=O)[C@@H](CCC(=O)O)NC(=O)[C@@H]([C@H](C)O)NC1=O)”, for which the maximum water solubility entry in series [3] is given as “approximately 10 mg/mL”. In addition, the clinical signs entry in series [4] is reported as “No clinical signs”.
